This is an account of results in publication PMC11048155, “Antiviral Drug Candidate Repositioning for Streptococcus suis Infection in Non-Tumorigenic Cell Models” (Biomedicines, 2024).

Assay [1] deals with Pseudomonas (P.) aeruginosa (ATCC 27853). In words: MIC measurement (broth microdilution). The format is cell-based. Particulars: source ATCC, 18–24 h at 37 °C. A general note: In broth dilution the organism is exposed to a series of concentrations in liquid medium.
Assay [2] has as its system Escherichia (E.) coli (ATCC 11775). Description: MIC measurement (broth microdilution). Format: cell-based. The note with it: source ATCC, 18–24 h at 37 °C.
The test system of assay [3] is IPEC-J2 cells. Description: Cell viability, Neutral red assay. The format is cell-based, porcine. The note with it: IPEC-J2, S. suis 10^4 CFU/mL in combination with inhibitor 50 µM, 24 h. An excerpt: The IPEC-J2 cell line is unique as it is non-transformed and non-tumorigenic. IPEC-J2 cells are derived from intestinal enterocytes extracted from the jejunum of neonatal unsuckled piglets. IPEC-J2 cells were gifted by Dr. Jody Gookin (Department of Clinical Sciences, College of Veterinary Medicine, North Carolina State University, Raleigh, NC, USA). […] The cells had undergone passage around 50 times. […] This experiment included plain DMEM/F12 medium as a control. At the end of the final treatments (24 h), the ratio of viable cells was measured by absorbance at 540 nm wavelength with a SpectraMax iD3 microplate reader.

Assay [4] relates to Enterococcus (E.) faecalis (clinical isolate). In words: MIC measurement (broth microdilution). Particulars: Enterococcus; E. fecalis, source 442; 18–24 h at 37 °C; read-out: MIC. Format: cell-based.
Assay [5] relates to IPEC-J2 cells. In words: EC H2O2 production, Amplex red method. Particulars: 24 h. The format is cell-based, porcine. The protocol:
For oxidative status measurements, inhibitors MI-432, MI-471, or MI-476 were used at 50 µM in the absence and presence of S. suis for 24 h in IPEC-J2 cells and in primary porcine hepatocytes on 24-well plates. An Amplex red hydrogen peroxide assay kit was used to monitor EC hydrogen peroxide (H₂O₂) production in IPEC-J2 cells and in hepatocytes. Following the manufacturer’s instructions, cell-free supernatants were collected and mixed with the Amplex red working solution (in a ratio of 1:1). A Victor X2 2030 fluorometer was used to detect fluorescence intensity at wavelengths 530 nm and 590 nm for excitation and emission, respectively.

Assay [6] concerns primary porcine hepatocytes. Description: Cell viability, Neutral red assay. Format: cell-based. Particulars: S. suis 10^4 CFU/mL in combination with inhibitor 50 µM, 24 h. The procedure:
Porcine cryopreserved primary hepatocytes were obtained from Primacyt Cell Culture Company (Schwerin, Germany). Lonza Group Ltd. (Biocenter Ltd., Szeged, Hungary) supplied the thawing, plating, and maintenance media. The cytotoxic effects of inhibitors MI-432, MI-471, and MI-476 were tested on the viability of primary hepatocytes using the NR method. The hepatocytes were cultivated on a 96-well plate for 24 h, followed by incubation with the inhibitors at 0, 50, and 100 µM for an additional 24 h. Only cell maintenance medium was used to incubate the control cells. The plate underwent incubation together with NR dye for 2 h. Hepatocyte viability was recorded at 540 nm with a SpectraMax iD3 microplate reader.

Where [7] appears, read: IPEC-J2, S. suis 10^4 CFU/mL in combination with inhibitor 50 µM.

Structures are written as SMILES. Entries after “also recorded” stand apart in the source; their conditions may differ.

A word on the MIC: it is the lowest concentration found to suppress growth.

Consider `N=C(N)c1cccc(C[C@H](NS(=O)(=O)c2cccc(-c3ccc(Cl)cc3Cl)c2)C(=O)N2CCC(N)CC2)c1` [MI-471], for which the minimal inhibitory concentration (MIC) in assay [1], in assay [2] and in assay [4] was more than 800 µM each time. Further, the cell viability entry in the assay on IPEC-J2 cells [3] is “did not show any negative effect on cell viability; also recorded: effectively suppressed”. In addition, the “EC H2O2 production” value in the assay on IPEC-J2 cells [5] (setting [7]) is “significant increase; also recorded: significant elevation in H2O2 levels”; with IPEC-J2 cells [5] (IPEC-J2, inhibitor alone 50 µM), “unchanged H₂O₂ production”.

Turning to `N=C(N)c1cccc(C[C@H](NS(=O)(=O)c2cccc(-c3ccc(Cl)cc3Cl)c2)C(=O)N2CCC(CN)CC2)c1` [MI-476], the MIC in assay [1], in assay [2] and in assay [4] was more than 800 µM each time. Also, the cell viability result in the assay with IPEC-J2 cells [3] is given as “did not show any negative effect on cell viability; also recorded: effectively suppressed”; in assay [6] it was “did not deteriorate cell viability; also recorded: effectively suppressed”. In addition, the “EC H2O2 production” value in the assay with IPEC-J2 cells [5] (setting [7]) is “unchanged H₂O₂ production; also recorded: antioxidant properties”; in the assay with IPEC-J2 cells [5] (IPEC-J2, inhibitor alone 50 µM), “unchanged H₂O₂ production”.
